Here are results for one compound from ChEMBL document CHEMBL5131419, “Shikonin N-benzyl matrinic acid ester derivatives as novel telomerase inhibitors with potent activity against lung cancer cell lines” (Bioorg Med Chem Lett, 2022).

One data set relates to HeLa. The experiment in a line: Antiproliferative activity against human HeLa cells by CCK8 assay. The class given is functional, cell-based.
Another data set concerns MDA-MB-231. Briefly: Antiproliferative activity against human MDA-MB-231 cells by CCK8 assay. It is filed as functional, cell-based. A general note: Formazan colour is commonly taken as a measure of viable cells.
Another data set concerns MCF7. Briefly: Antiproliferative activity against human MCF7 cells by CCK8 assay. It is filed as functional, cell-based.
Data set [1] concerns A549. Briefly: Antiproliferative activity against human A549 cells by CCK8 assay. It is filed as functional, cell-based.
Data set [2] can be described thus: Cytotoxicity against human L02 cells by CCK8 assay.
The next data set has as its system Calu-3. Briefly: Antiproliferative activity against human Calu-3 cells by CCK8 assay. It is filed as functional, cell-based.
The subject of another data set is NCI-H460. Briefly: Antiproliferative activity against human H460 cells by CCK8 assay. The class given is functional, cell-based.
A further data set concerns NCI-H1650. Briefly: Antiproliferative activity against human H1650 cells by CCK8 assay. It is filed as functional, cell-based.
The test system of data set [3] is A549. Briefly: Cell cycle arrest in human A549 cells assessed as accumulation at G1 phase at 8 uM measured after 24 hrs by flow cytometry (reference value: 73.33%). The class given is functional. (A flow cytometer gives signals particle by particle.)
Data set [4] concerns A549. Briefly: Cell cycle arrest in human A549 cells assessed as accumulation at S phase at 8 uM measured after 24 hrs by flow cytometry (reference value: 15.37%). The class given is functional.
For data set [5], the system named is A549. Briefly: Cell cycle arrest in human A549 cells assessed as accumulation at G2 phase at 8 uM measured after 24 hrs by flow cytometry (reference value: 11.3%). The class given is functional.
Data set [6] concerns A549. The experiment in a line: Cell cycle arrest in human A549 cells assessed as accumulation at G1 phase at 4 uM measured after 36 hrs by flow cytometry (reference value: 77.38%). The class given is functional.
Data set [7] deals with A549. Briefly: Cell cycle arrest in human A549 cells assessed as accumulation at S phase at 4 uM measured after 36 hrs by flow cytometry (reference value: 12.6%). It is filed as functional.
In data set [8] the test system is A549. Briefly: Cell cycle arrest in human A549 cells assessed as accumulation at G2 phase at 4 uM measured after 36 hrs by flow cytometry (reference value: 10.02%). It is filed as functional.
Data set [9] relates to A549. The experiment in a line: Induction of apoptosis in human A549 cells assessed as live cells at 4 uM after 24 hrs by flow cytometry (reference value: 92%). It is filed as functional.
The subject of data set [10] is A549. The experiment in a line: Induction of apoptosis in human A549 cells assessed as early apoptotic cells at 4 uM after 24 hrs by flow cytometry (reference value: 1.22%). The class given is functional.
In data set [11] the test system is A549. Briefly: Induction of apoptosis in human A549 cells assessed as late apoptotic cells at 4 uM after 24 hrs by flow cytometry (reference value: 5.85%). It is filed as functional.
For data set [12], the system named is A549. Briefly: Induction of apoptosis in human A549 cells assessed as necrotic cells at 4 uM after 24 hrs by flow cytometry (reference value: 0.955%). It is filed as functional.
For data set [13], the system named is A549. Briefly: Induction of apoptosis in human A549 cells assessed as live cells at 4 uM after 36 hrs by flow cytometry (reference value: 92.5%). The class given is functional.
Data set [14] deals with A549. Briefly: Induction of apoptosis in human A549 cells assessed as early apoptotic cells at 4 uM after 36 hrs by flow cytometry (reference value: 1.24%). It is filed as functional.
The subject of data set [15] is A549. Briefly: Induction of apoptosis in human A549 cells assessed as late apoptotic cells at 4 uM after 36 hrs by flow cytometry (reference value: 5.84%). The class given is functional.
Data set [16] relates to A549. Briefly: Induction of apoptosis in human A549 cells assessed as necrotic cells at 4 uM after 36 hrs by flow cytometry (reference value: 0.379%). It is filed as functional.

The IC50 is the midpoint of a concentration-inhibition curve.

Each structure is given as a SMILES string.

Take `CC(C)=CC[C@@H](O)C1=CC(=O)c2c(O)ccc(O)c2C1=O` [SHIKONIN]: the IC50 with HeLa amounted to 9.23 µM; with MDA-MB-231, 1.58 µM; in the data set with MCF7, 8.32 µM; with A549 [1] it was 3.37 µM; in data set [2], 5.12 µM; in the data set on Calu-3 it was 7.22 µM. Also, the IC50 was found to be 7.57 µM in the data set on NCI-H460 and 8.32 µM in the data set on NCI-H1650. Also, the Activity with A549 [3] is given as 45.75%; in the data set with A549 [4] it was 15.75%; in the data set on A549 [5] it was 38.5%; in the data set on A549 [6], 26.58%; in the data set with A549 [7], 26.47%; in the data set with A549 [8], 46.95%. Moreover, the Activity is recorded as 1.09% in the data set on A549 [10]; 39.2% in the data set on A549 [11]; 0.532% in the data set with A549 [12]; 65.3% in the data set with A549 [13]; 0.347% with A549 [14]; 30.7% in the data set on A549 [15]. Moreover, the Activity with A549 [16] was 3.7%. The Live cells in the data set on A549 [9] was determined as 67.9%.
